Results published in patent publication US20220267479A1, “POLYIODIDE BINDING COMPOUNDS AND METHODS OF USE THEREOF” (North Carolina State University, priority 2019, published 2022).
Several values for one entry are separate records, joined by “and”; a condition that tells them apart may be missing. Equal entries are not always repeated. Marks after values point to notes of the source that are not given here.

Columns and labels:
Format in all cases: biochemical
[1] = test system: β-glucosidase from almonds; assay: Indigogenic reaction with β-glucosidase from almonds
From the text: With diverse glucosyl-indoxyl compounds in hand, we carried out a set of studies to examine indigoid-dye formation upon enzymatic cleavage of the glucosyl unit under physiological conditions. Altogether, 14 new (15, 16, 19-27, 30, 33, 41) and 2 known (1, 42) synthetic indoxyl-glucosides (lacking acetyl protecting groups) were examined in an effort to identify suitable combinations of substituents to support both bioconjugation and indigoid dye formation. In initial studies, β-glucosidase from almonds was employed to trigger indigoid dye formation (Table 1). Thus, a mixture of this enzyme (1 unit/mL) and an indoxyl β-glucoside (0.1 μmol, 1 mM) in acetate buffer (pH 5, containing 5% DMF) was incubated at 37° C. for 16-19 h. All indigoid dye was dissolved in each case for quantitative evaluation.
Reactions with β-glucosidase from almonds. An indoxyl compound in DMF (5 μL, 20 mM) and β-glucosidase from almonds in H2O (10 μL, 10 units/mL) were mixed with acetate buffer (85 μL, 50 mM, pH 5.0). The reaction mixture was incubated at 37° C. for 16-19 h and then allowed to cool to room temperature. DMF (300 μL for the reactions of 15, 16, 1, 19, 22, and 25; or 900 μL for the reactions of 42, 20, 21, 23, 24, 26, 27, 30, and 31, respectively) was added to dissolve any indigoid precipitate. The resulting solution was analyzed by absorption spectroscopy.

[2] = target: T1, β-glucosidase from Agrobacterium (Agrobacterium sp., UniProt P12614); assay: Indigogenic reaction with β-glucosidase from Agrobacterium
T1 construct: purchased Megazyme; host or cells: recombinant
T1 sequence (P12614 1-459): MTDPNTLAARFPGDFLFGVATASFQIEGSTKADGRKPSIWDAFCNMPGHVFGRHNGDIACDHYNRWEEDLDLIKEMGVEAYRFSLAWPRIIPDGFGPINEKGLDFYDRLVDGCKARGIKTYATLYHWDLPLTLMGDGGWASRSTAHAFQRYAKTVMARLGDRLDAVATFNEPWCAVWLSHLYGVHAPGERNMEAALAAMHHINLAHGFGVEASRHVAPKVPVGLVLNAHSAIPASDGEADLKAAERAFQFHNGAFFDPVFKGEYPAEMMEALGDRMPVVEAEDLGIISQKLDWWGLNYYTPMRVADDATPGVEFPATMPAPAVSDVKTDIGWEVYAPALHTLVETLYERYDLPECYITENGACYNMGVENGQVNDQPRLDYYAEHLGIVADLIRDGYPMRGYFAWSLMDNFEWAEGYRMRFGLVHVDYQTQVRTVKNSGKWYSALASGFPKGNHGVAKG
Method: Next, the β-glucosidase from Agrobacterium sp. was investigated as the trigger enzyme for indigoid dye formation. […]
Reactions with β-glucosidase from Agrobacterium. An indoxyl compound in DMF (2 μL, 5 mM) and β-glucosidase from Agrobacterium in 10 mM phosphate buffer [2 μL, 10 μM, pH 7.0, containing 50 mM NaCl and 0.6 M (NH4)2SO4] were mixed with 50 mM phosphate buffer (96 μL, pH 7.0). The reaction mixture was incubated at 37° C. for 2 h and then centrifuged for 3 min. Any precipitate was separated from the supernatant and dissolved in DMF (200 μL). The resulting solution was analyzed by absorption spectroscopy. The experiment was repeated three times.

rat liver homogenate = assay: Indigoid-dye formation in rat liver homogenate; conditions: indoxyl 1 mM, 5% DMF, 37° C., 24 h; ε = 1.27 × 10^4 M^-1 cm^-1
Method: Finally, indigoid-dye formation was carried out in rat liver homogenate (Table 1, rightmost column).
Reactions in rat liver homogenate. An indoxyl compound in DMF (5 μL, 20 mM) was mixed with rat liver homogenate (95 μL). The reaction mixture was incubated at 37° C. for 24 h. After allowing to cool to room temperature, the reaction mixture was diluted with DMF (900 μL). The mixture was heated at 70° C. for 2 min and then centrifuged for 2 min. The supernatant was separated from any precipitate. This extraction procedure was repeated two or three times with DMF (100-500 μL). The combined supernatant (1500-1800 μL) was analyzed by absorption spectroscopy.

[3] = target: T1, β-glucosidase from Agrobacterium; assay: Enzyme-triggered oligomerization of bis(indoxyl-glucoside) 46
Method: Oligomerization of 46 was carried out by treatment with β-glucosidase from Agrobacterium (200 nM) in 10 mM phosphate buffer (pH 7) at 37° C. for 2-4 h (Scheme 9). Precipitation occurred during the reaction. After centrifugation, the precipitate was separated from the supernatant, washed with H2O, and dried to afford a blue solid.
The efficacy of the indigogenic oligomerization was examined under a variety of conditions. As shown in entries 1-4 in Table 2, the yield of indigoid dye in the supernatant versus precipitate reversed as the concentration of 46 was decreased from 300 to 10 μM, although the total yields were in the range 17-29%. While the reactions in entries 1-4 were carried out in phosphate buffer containing NaCl (0.05 M), those of entries 5 and 6 (with 300 and 50 μM of 46, respectively) were conducted in NaCl-free phosphate buffer. The use of NaCl-free phosphate buffer facilitated extraction of the indigoid dye in the supernatant for analysis.

[4] = indoxyl 100 μM, enzyme 200 nM, 0.05 M phosphate buffer pH 7.0, 2% DMF, 37° C., 2 h, n=3, ε = 1.27 × 10^4 M^-1 cm^-1
[5] = as E4 but ε = 2.6 × 10^4 M^-1 cm^-1 measured for 43
[6] = indoxyl 1 mM, enzyme 1 unit/mL, acetate buffer pH 5, 5% DMF, 37° C., 16-19 h, ε = 1.27 × 10^4 M^-1 cm^-1 (measured for 4)
[7] = entry 1: [46] 300 μM, 2 h, phosphate buffer containing NaCl (0.05M)
[8] = entry 2: [46] 100 μM, 3 h, phosphate buffer containing NaCl (0.05M)
[9] = entry 3: [46] 50 μM, 2 h, phosphate buffer containing NaCl (0.05M), repeated three times
[10] = entry 4: [46] 10 μM, 4 h, phosphate buffer containing NaCl (0.05M)
[11] = entry 5: [46] 300 μM, 3 h, NaCl-free phosphate buffer containing DMF (0.1-0.6%)
[12] = entry 6: [46] 50 μM, 3 h, NaCl-free phosphate buffer containing DMF (0.1-0.6%)

Compound | Yield (%) rat liver homogenate (rat liver homogenate) [%] | Yield (%) β-glucosidase from Agrobacterium [2, 4] [%] | Yield (%) β-glucosidase from Agrobacterium [2, 5] | Yield (%) β-glucosidase from almonds [1, 6] [%] | other results
5-bromo-4-chloroindoxyl β-glucoside [Indoxyl 42, reference compound] | 65 | – | – | – | Yield (%) β-glucosidase from almonds ([1]; as E1 but ε = 2.00 × 10^4 M^-1 cm^-1 reported for 5,5′-dibromo-4,4′-dichloroindigo): 74% and 74^e %; Yield (%) β-glucosidase from Agrobacterium ([2]; as E4 but ε = 2.00 × 10^4 M^-1 cm^-1 reported for 5,5′-dibromo-4,4′-dichloroindigo): 116% and 116 ± 8^e %
COc1nc(Oc2ccc3[nH]cc(O[C@@H]4O[C@H](CO)[C@@H](O)[C@H](O)[C@H]4O)c3c2Br)nc(N2CCOCC2)n1 [Indoxyl 20, 4-Bromo-5-[(4-methoxy-6-morpholino-1,3,5-triazin-2-yl)oxy]-1H-indole-3-yl β-D-glucopyranoside] | <5 | 150 ± 3 | – | – | –
COc1nc(Oc2c(Br)cc3[nH]cc(O[C@@H]4O[C@H](CO)[C@@H](O)[C@H](O)[C@H]4O)c3c2Br)nc(N2CCOCC2)n1 [Indoxyl 21, 4,6-Dibromo-5-[(4-methoxy-6-morpholino-1,3,5-triazin-2-yl)oxy]-1H-indole-3-yl β-D-glucopyranoside] | <5 | 63 ± 4 | 31 ± 2% | – | –
COC(=O)COc1ccc2[nH]cc(O[C@@H]3O[C@H](CO)[C@@H](O)[C@H](O)[C@H]3O)c2c1 [Indoxyl 22, 5-(Methoxycarbonyl)methoxy-1H-indol-3-yl β-D-glucopyranoside] | <5 | 30 ± 6 | – | <1 | –
COC(=O)COc1ccc2[nH]cc(O[C@@H]3O[C@H](CO)[C@@H](O)[C@H](O)[C@H]3O)c2c1Br [Indoxyl 23, 4-Bromo-5-(methoxycarbonyl)methoxy-1H-indol-3-yl β-D-glucopyranoside] | <5 | 84 ± 4 | – | 68 | –
COC(=O)COc1c(Br)cc2[nH]cc(O[C@@H]3O[C@H](CO)[C@@H](O)[C@H](O)[C@H]3O)c2c1Br [Indoxyl 24, 4,6-Dibromo-5-(methoxycarbonyl)methoxy-1H-indol-3-yl β-D-glucopyranoside] | <5 | 209 ± 6 | 102 ± 3% | 122 | Yield (%) β-glucosidase from almonds ([1]; as E1 but ε = 2.6 × 10^4 M^-1 cm^-1 measured for 43): 59%
C#CCOc1ccc2[nH]cc(O[C@@H]3O[C@H](CO)[C@@H](O)[C@H](O)[C@H]3O)c2c1 [Indoxyl 25, 5-Propargyloxy-1H-indol-3-yl β-D-glucopyranoside] | 11 | 37 ± 2 | – | <5 | –
OC[C@H]1O[C@@H](Oc2c[nH]c3cc(Br)c(OCC4[C@H]5CCC#CCC[C@@H]45)c(Br)c23)[C@H](O)[C@@H](O)[C@@H]1O (stereo partly drawn) [Indoxyl 30, 5-{[(1R,8S,9s)-Bicyclo[6.1.0]non-4-yn-9-yl]methoxy}-4,6-dibromo-1H-indole-3-yl β-D-glucopyranoside] | – | 21 ± 1 | 10% and 10 ± 0.4% | – | –
O=S(=O)([O-])CCC[N+]1(CCCO)CCN(c2nc(OCCOCCOCCOc3c(Br)cc4[nH]cc(O[C@@H]5O[C@H](CO)[C@@H](O)[C@H](O)[C@H]5O)c4c3Br)nc(OCCOCCOCCOc3c(Br)cc4[nH]cc(O[C@@H]5O[C@H](CO)[C@@H](O)[C@H](O)[C@H]5O)c4c3Br)n2)CC1 [Indoxyl 46] | – | – | – | – | Total yields of indigoid dye (supernatant plus precipitate) ([3]; entries 1-4, [46] 300 to 10 μM): 17-29%; Yield of indigoid dye (%) precipitate [3, 7]: 11%; Yield of indigoid dye (%) supernatant [3, 7]: 6%; Yield of indigoid dye (%) precipitate [3, 8]: 14%; Yield of indigoid dye (%) supernatant [3, 8]: 10%; Yield of indigoid dye (%) precipitate [3, 9]: 16 ± 0.6^c %; Yield of indigoid dye (%) supernatant [3, 9]: 13 ± 0.4^c %; Yield of indigoid dye (%) precipitate [3, 10]: 6%; Yield of indigoid dye (%) supernatant [3, 10]: 22%; Yield of indigoid dye (%) precipitate [3, 11]: 13%; Yield of indigoid dye (%) supernatant [3, 11]: 13%; Yield of indigoid dye (%) precipitate [3, 12]: 8%; Yield of indigoid dye (%) supernatant [3, 12]: 19%
